# Assay results taken from patent publication US20130004588A1, “DIVALENT CATION CONTAINING COMPOSITIONS AND METHODS FOR TREATING AND/OR PREVENTING ENZYMATIC IRRITATION” (priority 2011, published 2013).
# What was measured:
# [1] = tested on: trypsin; assay: EnzChek trypsin inhibition assay, mixtures of talc with divalent cation salts (Example 3); assay type: biochemical; conditions: for With Talc trypsin inhibition activities (%): all tested materials at 0.1% (g/mL); for Hypothetically calculated additive value of salt and Talc: Table 4
# Protocol: The objective of the following experiment was to determine whether and to what extent adding a divalent cation to talc inhibited trypsin activity in an in vitro assay. The inhibition of trypsin-induced cleavage of a fluorescent casein peptide was measured using the EnzChek™ protease assay kit, following manufacturer's instructions (EnzChek™ Protease Assay Kits Product Information, Revised; Molecular Probes, Eugene Oreg.). […] Trypsin working solution (Sigma, St. Louis, Mo., unit/mL) was prepared in digestion buffer provided in the assay kit. Stock solution of BODIPY FL casein (trypsin substrate, mg/mL) was prepared by adding 0.2 mL to the substrate vials (provided in kit), and the final substrate working solution (10 microgram/mL) was prepared by dilution in digestion buffer (pH 7.8). Following incubation of the trypsin, with or without the test materials, with the BODIPY fluorescent casein substrate, at room temperature for one hour, fluorescence was measured (excitation 485 nm /emission 530 nm) using a SpectraMax microtiter plate reader (Molecular Devices Corporation, Sunnyvale, Calif.) and Softmax Pro software (Molecular Devices Corporation). Each experiment was performed in three replicates.
# [2] = biological target: T1, trypsin (Bos taurus, UniProt P00760); conditions: low concentrations, around 0.001 M; cited from earlier work
# T1 sequence (P00760 24-246): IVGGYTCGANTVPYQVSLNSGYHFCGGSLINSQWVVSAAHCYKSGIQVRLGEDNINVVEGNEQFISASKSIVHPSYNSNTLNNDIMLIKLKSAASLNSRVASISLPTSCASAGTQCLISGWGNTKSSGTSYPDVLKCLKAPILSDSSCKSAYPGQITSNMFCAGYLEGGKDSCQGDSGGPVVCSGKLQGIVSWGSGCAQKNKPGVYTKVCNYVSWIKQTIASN
# [3] = tested on: trypsin; assay: EnzChek trypsin inhibition assay, zinc oxide/acid mixtures and zinc oxide containing formulations (Example 4); assay type: biochemical; conditions: for % trypsin inhibitory activity: Table 5
# Protocol: The objective of the following experiment was to determine whether and to what extent adding an acid to a formulation containing zinc oxide had on inhibition of trypsin activity in an in vitro assay. The inhibition of trypsin-induced cleavage of a fluorescent casein peptide was measured using the EnzChek™ protease assay kit, following manufacturer's instructions (EnzChek™ Protease Assay Kits Product Information, Revised; Molecular Probes, Eugene Oreg.). Briefly, mixtures of zinc oxide and acid at different concentrations were prepared in 1×PBS (pH 7.4) and their pH was recorded as listed in the Tables 5-8. Trypsin working solution (Sigma, St. Louis, Mo., unit/mL) was prepared in digestion buffer provided in the assay kit. Stock solution of BODIPY FL casein (trypsin substrate, mg/mL) was prepared by adding 0.2 mL to the substrate vials (provided in kit), and the final substrate working solution (10 microgram/mL) was prepared by dilution in digestion buffer (pH 7.8). Following incubation of the trypsin, with or without the test materials (50 μl), with the BODIPY fluorescent casein substrate, at room temperature for one hour, fluorescence was measured (excitation 485 nm/emission 530 nm) using a SpectraMax microtiter plate reader (Molecular Devices Corporation, Sunnyvale, Calif.) and Softmax Pro software (Molecular Devices Corporation). Each experiment was performed in three replicates.
# For preparations, samples were diluted in 1×PBS at 1:10 ratio and subjected to centrifugation at 13,200 rpm for 1 min using Eppendorf Centrifuge (Model 5415D, Eppendorf AG, Hamburg, Germany) to remove the solid formulation ingredients. The supernatants (50 μl) were used for trypsin inhibitory activity analyses as described above. For preparations, samples were diluted in 10, or 20 or 40% ethanol and subjected to centrifugation at 13,200 rpm for 1 min using Eppendorf Centrifuge (Model 5415D, Eppendorf AG, Hamburg, Germany) to remove the solid formulation ingredients. The supernatants (50 μl) were used for trypsin inhibition assay. Possible effects of ethanol solution (10, 20 or 40% ethanol) on trypsin inhibition activity were tested in the same study and found no significant impact.
# [4] = tested on: trypsin; assay: Inhibition of trypsin-induced cleavage of fluorescent casein, EnzChek protease assay (cations and salt forms, Examples 1 and 2); assay type: biochemical
# Protocol: The inhibition of trypsin-induced cleavage of a fluorescent casein peptide was measured using the EnzChek™ protease assay kit, following manufacturer's instructions (EnzChek™ Protease Assay Kits Product Information, Revised; Molecular Probes, Eugene Oreg.). Briefly, test materials at different concentrations were prepared in 1×phosphate buffered saline (PBS, pH 7.4). Trypsin working solution (Sigma, St. Louis, Mo., unit/mL) was prepared in digestion buffer provided in the assay kit. Stock solution of BODIPY FL casein (trypsin substrate, mg/mL) was prepared by adding 0.2 mL to the substrate vials (provided in kit), and the final substrate working solution (10 microgram/mL) was prepared by dilution in digestion buffer (pH 7.8). […] Each experiment was performed in three replicates.
molecule,measurement,setting,value
CC(=O)[O-].CC(=O)[O-].O.[Ca+2] [Calcium acetate monohydrate],% synergistic activity relative to hypothetic additive value,"[1]; Table 3, 0.1% (g/mL)",3.10%
same,With Talc trypsin inhibition activities (%),[1]; Table 3,24.6%
[Ag+] [Ag+],inhibition of the esterase activity of trypsin,[2],inhibited
CC(=O)O [acetic acid],% trypsin inhibitory activity,"[3]; no ZnO, 0.01% acetic acid, pH 6.84",−11.18 +/− 2.61%
same,% trypsin inhibitory activity,"[3]; no ZnO, 0.05% acetic acid, pH 4.75",25.81 +/− 2.13%
[Cl-].[Cl-].[Zn+2] [Zinc chloride],% trypsin inhibitory activity,"[4]; Table 1, 0.01% (g/mL)",42.99%
same,% trypsin inhibitory activity,"[4]; Table 1, 0.10% (g/mL)",88.51%
same,% trypsin inhibitory activity,"[4]; Table 1, 1% (g/mL)",105.87%
same,% trypsin inhibitory activity,"[4]; Table 2, 0.01% weight (g/mL)",41.25%
same,% trypsin inhibitory activity,"[4]; Table 2, 0.10% weight (g/mL)",87.69%
same,% trypsin inhibitory activity,"[4]; Table 2, 1% weight (g/mL)",98.75%
same,% synergistic activity relative to hypothetic additive value,"[1]; Table 3, 0.1% (g/mL)",−13.01%
same,With Talc trypsin inhibition activities (%),[1]; Table 3,77.96%
[Hg+2] [Hg++],inhibition of the esterase activity of trypsin,[2],inhibited
CC(O)C(=O)[O-].CC(O)C(=O)[O-].[Zn+2] (stereo not drawn) [Zinc lactate],% trypsin inhibitory activity,"[4]; Table 2, 0.01% weight (g/mL)",23.01%
same,% trypsin inhibitory activity,"[4]; Table 2, 0.10% weight (g/mL)",36.36%
same,% trypsin inhibitory activity,"[4]; Table 2, 1% weight (g/mL)",87.95%
[Cl-].[Cl-].[Sr+2] [Strontium chloride],% trypsin inhibitory activity,"[4]; Table 1, 0.01% (g/mL)",6.51%
same,% trypsin inhibitory activity,"[4]; Table 1, 0.10% (g/mL)",11.78%
same,% trypsin inhibitory activity,"[4]; Table 1, 1% (g/mL)",47.05%
"[O]=[Zn] [ZnO, zinc oxide]",% trypsin inhibitory activity,"[3]; 0.1% ZnO with 0.01% acetic acid, pH 7.28",1.85 +/− 1.34%
same,% trypsin inhibitory activity,"[3]; 0.1% ZnO with 0.05% acetic acid, pH 6.03",49.16 +/− 1.43%
same,% trypsin inhibitory activity,"[3]; 0.1% ZnO, no acetic acid, pH 7.61",−2.6 +/− 2.76%
same,% trypsin inhibitory activity,"[3]; 1% ZnO with 0.01% acetic acid, pH 7.85",15.82 +/− 1.68%
same,% trypsin inhibitory activity,"[3]; 1% ZnO with 0.05% acetic acid, pH 6.08",58.19 +/− 0.73%
same,% trypsin inhibitory activity,"[3]; 1% ZnO, no acetic acid, pH 8.07",5.40 +/− 1.24%
same,trypsin inhibitory activity (in words),[3]; conclusion from Tables 5-8,minimal protease activity
"[Cl-].[Li+] [Lithium chloride, reference compound]",% trypsin inhibitory activity,"[4]; Table 1, 0.01% (g/mL)",8.71%
same,% trypsin inhibitory activity,"[4]; Table 1, 0.10% (g/mL)",7.56%
same,% trypsin inhibitory activity,"[4]; Table 1, 1% (g/mL)",−0.56%
"O=[N+]([O-])[O-].[Ag+] [Silver nitrate, reference compound]",% trypsin inhibitory activity,"[4]; Table 1, 0.01% (g/mL)",−2.43%
same,% trypsin inhibitory activity,"[4]; Table 1, 0.10% (g/mL)",2.91%
same,% trypsin inhibitory activity,"[4]; Table 1, 1% (g/mL)",5.37%
[Cu+2] [Cu++],inhibition of the esterase activity of trypsin,[2],inhibited
[Ca+2].[Cl-].[Cl-] [Calcium chloride],% synergistic activity relative to hypothetic additive value,"[1]; Table 3, 0.1% (g/mL)",−0.26%
same,With Talc trypsin inhibition activities (%),[1]; Table 3,26.43%
[Cl-].[Cl-].[Mg+2] [Magnesium chloride],With Talc trypsin inhibition activities (%),[1]; Table 3,20.05%
same,Hypothetically calculated additive value of salt and Talc,"[1]; 0.1% MgCl2, 1% Talc",12.44%
same,Hypothetically calculated additive value of salt and Talc,"[1]; 0.5% MgCl2, 1% Talc",22.93%
same,Hypothetically calculated additive value of salt and Talc,"[1]; 1% MgCl2, 1% Talc",25.55%
same,trypsin inhibitory activity (in words),[1]; talc and magnesium chloride alone or combined,moderate to low levels
CC(=O)[O-].CC(=O)[O-].O.O.O.O.[Mg+2] [Magnesium acetate tetrahydrate],% trypsin inhibitory activity,"[4]; Table 2, 0.10% weight (g/mL)",−3.09%
same,Salt alone trypsin inhibition activities (%),"[1]; Table 3, 0.1% (g/mL)",0.83%
same,With Talc trypsin inhibition activities (%),[1]; Table 3,17.83%
"[Cl-].[Na+] [Sodium chloride, reference compound]",% trypsin inhibitory activity,"[4]; Table 1, 0.01% (g/mL)",−7.57%
same,% trypsin inhibitory activity,"[4]; Table 1, 0.10% (g/mL)",−4.15%
same,% trypsin inhibitory activity,"[4]; Table 1, 1% (g/mL)",10.88%
Zinc gluconate,% trypsin inhibitory activity,"[4]; Table 2, 0.01% weight (g/mL)",25.33%
same,% trypsin inhibitory activity,"[4]; Table 2, 0.10% weight (g/mL)",40.93%
same,% trypsin inhibitory activity,"[4]; Table 2, 1% weight (g/mL)",85.52%
O.O.O.O.[Cl][Fe][Cl] [Iron (II) chloride tetrahydrate],% trypsin inhibitory activity,"[4]; Table 1, 0.01% (g/mL)",−3.24%
same,% trypsin inhibitory activity,"[4]; Table 1, 0.10% (g/mL)",64.84%
same,% trypsin inhibitory activity,"[4]; Table 1, 1% (g/mL)",112.23%
same,% synergistic activity relative to hypothetic additive value,"[1]; Table 3, 0.1% (g/mL)",−12.35%
same,With Talc trypsin inhibition activities (%),[1]; Table 3,64.53%
CC(=O)[O-].CC(=O)[O-].[Zn+2] [Zinc acetate dihydrate],% synergistic activity relative to hypothetic additive value,"[1]; Table 3, 0.1% (g/mL)",−15.70%
same,With Talc trypsin inhibition activities (%),[1]; Table 3,60.18%
O.O.[Cl][Cu][Cl] [(II) chloride dihydrate],% trypsin inhibitory activity,"[4]; Table 1, 0.01% (g/mL)",64.98%
same,% trypsin inhibitory activity,"[4]; Table 1, 0.10% (g/mL)",99.34%
same,% trypsin inhibitory activity,"[4]; Table 1, 1% (g/mL)",108.34%
